The values below come from patent publication US10568869B2, “Methods for diagnosing and treating prostate cancer” (Cornell University, priority 2012, dated 2020).

Series [1] has as its system LNCaP cells. Briefly: Western blot of Rap1-GTP, Rap1, phospho-B-Raf and B-Raf (EPAC activity). The format is cell-based, human. As to the method: (§1) FIGS. 5A-5E are graphs and images which illustrate experimental data depicting that sAC controls proliferation and the cell cycle in a PKA-independent and EPAC-dependent manner. FIGS. 5A-5C are graphs depicting statistical analyses of cell number per dish (FIG. 5A), LDH activity in the cell culture medium (relative units (r.u.)) (FIG. 5B), and G2 phase populations (FIG. 5C). Treatments (all 24 hours) were as follows: […], 100 mol/liter 8-pCPT-cAMP (8-pCPT), 100 mol/liter N6-benzoyl-cAMP (6-Bnz), 3 mol/liter H-89, or 100 mol/liter (Rp)-cAMP-S(RpcAMP). […] FIGS. 5D and 5E are images depicting Western blot analysis of the active form of Rap1 (Rap1-GTP) and phosphorylated forms of B-Raf performed with LNCaP cell lysates. Treatment conditions were similar to those described for FIGS. 5A-5C. Treatment was performed for 18 hours. All Western blot data are representative of four to six independent experiments with similar results.
Production of sAC protein in the LNCaP and PC3 prostate carcinoma cell lines was analyzed by Western blot. In particular, cells were lysed in Laemmli buffer containing 2% SDS, 10% glycerol, 5% 2-mercaptoethanol, 0.002% bromphenol blue, and 0.0625 mol/liter Tris-HCl. Equal amounts of total proteins were separated on SDS-polyacrylamide gels and transferred to a nitrocellulose membrane. The following primary antibodies were used: sAC (clones R21 and R40; provided by Dr. J. Buck) and actin (Millipore, Billerica, Mass.). After incubation with peroxidase-linked and horseradish peroxidase-labeled secondary antibodies, specific bands were visualized by chemiluminescence using an ECL Plus kit. Equivalent sample loading was confirmed by stripping the membranes with RESTORE™ Western blot stripping buffer (Thermo Fisher Scientific, Rockford, Ill.), followed by treatment with anti-actin antibody.
To test the role of EPAC in proliferation control, the effects of inhibition of sAC on EPAC activity in LNCaP cells was examined.
In general terms: Immunoblotting shows a protein as a band on a membrane.

The subject of series [2] is LNCaP cells. Description: FACS-based cell cycle analysis. To be noted: for effect on distribution of the cell population within the cell cycle: 24 hours, H-89 3 μmol/L, RpcAMP 100 μmol/L. Also on record: species or system human.
Source text: (§2) Treatment conditions were similar to those described for FIGS. 4A-4D. All Western blot data are representative of three to five independent experiments with similar results.
as §1
To understand the mechanisms responsible for the anti-proliferative effect of sAC inhibition, cell cycle analysis was performed using FACS-based cell cycle analysis. Specifically, LNCaP cells were fixed with 70% alcohol, stained with propidium iodide, and treated with RNase (BD Biosciences, San Jose, Calif.). DNA content was analyzed using a FACSCALIBUR™ flow cytometer (BD Biosciences, San Jose, Calif.) and FLOWJO™ software.

In series [3] the test system is LNCaP cells. Briefly: LDH activity in the cell culture medium. It is filed as cell-based, human. As to conditions: for effect on cytotoxicity (LDH activity): 24 hours, H-89 3 μmol/L, RpcAMP 100 μmol/L. As to the method:
(§3) FIG. 3A is an image depicting data from Western blot analysis of lysates of LNCaP cells after treatment with sAC-specific or scrambled siRNA for 72 hours (left panel) or after treatment with sAC-specific or scrambled shRNA for 72 hours (right panel). FIGS. 3B-D are graphs and images which illustrate experimental data depicting the effects of siRNA or shRNA transfection on cell proliferation (FIG. 3B), LDH activity in the cell culture medium (relative units (r.u.)) (FIG. 3C), and cleavage of caspase-3 (FIG. 3D). […] The Western blot data are representative of five independent experiments with similar results.
as §1

Series [4] deals with LNCaP cells. Description: Cell proliferation (cell number per dish). It is filed as cell-based, human. As to conditions: for effect on proliferation in cells treated with the sAC inhibitor KH7: co-treatment with KH7, 24 hours; for effect on proliferation: LNCaP control cells, H-89 3 μmol/L, RpcAMP 100 μmol/L. As to the method: (§4) FIG. 2 is a graph which illustrates experimental data depicting the effects of the sAC inhibitor KH7 on prostate cancer cell proliferation. Statistical analyses are presented for cellular cAMP content and cell number per dish (starting density: 150,000 cells/dish) 24 hours after KH7 treatment. Values are the mean±SEM (n=5-8). *p<0.05 vs. 0 μmol/L KH7.
as §3, §1
(§5) The androgen-sensitive LNCaP (ATCC-Nr. CRL-1740D) human prostate carcinoma cell line, the androgen-insensitive PC3 (ATCC-Nr. CRL-1435D) human prostate carcinoma cell line, and neuroblastoma cell line SH-SY5Y (ATCC-Nr. CRL-2266) were purchased from the American Type Culture Collection, and human normal prostate epithelial cell line PNT2 was purchased from Sigma-Aldrich (Cat. Nr. 95012613). Cells were expanded and frozen in aliquots within four weeks of purchase. Cells were thawed and cultured for no more than three further passages. PNT2 cells were cultured in medium RPMI1640 supplemented with 10% fetal calf serum, glutamine and antibiotics. All other cells were cultured in Dulbecco's modified Eagle's medium that was supplemented with 5% fetal calf serum, glutamine, and antibiotics. The cells (1.5×10^5) were seeded in culture medium with 2% fetal calf serum 24 hours prior to each experiment.
To further substantiate the role of sAC in cell growth and death, the sAC gene expression/sAC protein production was suppressed in LNCaP cells. Two different methods of sAC knockdown, lipofectamine-based transfection with sAC-specific siRNA or adenoviral transfection with shRNA, were used to further rule out the possibility of KH7 off-target effects. For lipofectamine-based siRNA transfection, LNCaP cells were treated with siRNA duplexes that consisted of four different predesigned sequences targeting the human sAC mRNA sequence (GenBank Accession No. NM_001167749; Dharmacon, Lafayette, Colo.; catalogue no. L-006353-00,). In the control group, cells were treated with scrambled non-targeting siRNA (Dharmacon, Lafayette, Colo.; catalogue no. D-001810-10). Cells were transfected following the manufacturer's instructions. Briefly, cells were seeded 1 day before transfection in Dulbecco's modified Eagle's medium that was supplemented with 2% fetal calf serum without antibiotics.

A further series relates to PC3 and LNCaP cells. Briefly: Cell growth and death analysis after 48 hours KH7 (LDH release, subG1, caspase-3 cleavage). It is filed as cell-based, human. To be noted: 20 μmol/L.
Source text: as §5
Treatment with KH7 reduced the intracellular cAMP content and suppressed cell proliferation in a dose-dependent manner in both cell lines with a maximal effect at 20 μmol/L, as shown in FIG. 2.

For the next series, the system named is tmAC. As to conditions: up to 100 μmol/L; cited from earlier work.
A further series relates to soluble guanylyl cyclase. To be noted: up to 100 μmol/L; cited from earlier work.
Series [5] has as its system LNCaP cells. Description: Western blot of proteins controlling cell cycle progression (cyclins, CDK1). To be noted: sAC inhibition.
Protocol: Production of sAC protein in the LNCaP and PC3 prostate carcinoma cell lines was analyzed by Western blot. […] Equal amounts of total proteins were separated on SDS-polyacrylamide gels and transferred to a nitrocellulose membrane. […] After incubation with peroxidase-linked and horseradish peroxidase-labeled secondary antibodies, specific bands were visualized by chemiluminescence using an ECL Plus kit.
To investigate how sAC controls the G2/M transition, the expression of various cyclins and CDK1 was examined via Western blot as described above using the following primary antibodies: CDK1, phospho-CDK1, cyclin B1, cyclin D1, cyclin D3, and cyclin E2.
For series [6], the system named is PC3 cells. Description: Cell proliferation (cell number per dish). It is filed as cell-based, human. As to conditions: PC3, 24 hours, dose-dependent. As to the method: as §4
as §5, with “experiment. […]” for “experiment.”

Series [7] deals with LNCaP cells. Description: Cellular cAMP content after KH7 treatment. It is filed as cell-based, human. As to conditions: 24 hours, dose-dependent. As to the method:
as §4
as §5, with “experiment. […]” for “experiment.”

Series [8] deals with PC3 cells. Description: Cellular cAMP content after KH7 treatment. The format is cell-based, human. To be noted: PC3, 24 hours, dose-dependent. As to the method: as §4
as §5, with “experiment. […]” for “experiment.”

The test system of series [9] is LNCaP cells. Description: Caspase-3 cleavage (Western blot). The format is cell-based, human. As to the method: as §3, §2
Production of sAC protein in the LNCaP and PC3 prostate carcinoma cell lines was analyzed by Western blot. In particular, cells were lysed in Laemmli buffer containing 2% SDS, 10% glycerol, 5% 2-mercaptoethanol, 0.002% bromphenol blue, and 0.0625 mol/liter Tris-HCl. Equal amounts of total proteins were separated on SDS-polyacrylamide gels and transferred to a nitrocellulose membrane. The following primary antibodies were used: sAC (clones R21 and R40; provided by Dr. J. Buck) and actin (Millipore, Billerica, Mass.). […]

The mark [10] stands for this setting: co-treatment with KH7, 24 hours.

`Nc1ncnc2c1nc(Sc1ccc(Cl)cc1)n2[C@@H]1O[C@@H]2COP(=O)(O)O[C@H]2[C@H]1O` [8-pCPT, 8-pCPT-cAMP]: the “effect on KH7-induced change of Rap1-GTP expression” value in the series with LNCaP cells [1] (co-treatment with KH7) is “reversed”. In addition, the “effect on cell cycle block induced by sAC inhibition” value with LNCaP cells [2] (setting [10]) is reported as “prevented”. Also, in the series with LNCaP cells [3] (setting [10]), the “effect on LDH release induced by sAC inhibition” value is on record as “prevented”. In addition, the “effect on proliferation in cells treated with the sAC inhibitor KH7” value in the series with LNCaP cells [4] (LNCaP) is “prevented”.
As to `O=S(=O)(NCCNC/C=C/c1ccc(Br)cc1)c1cccc2cnccc12` [H-89], the “effect on distribution of the cell population within the cell cycle” value in the series on LNCaP cells [2] was “no effect”. In addition, the “effect on cytotoxicity (LDH activity)” value with LNCaP cells [3] was “no effect”. In addition, the effect on proliferation entry in the series with LNCaP cells [4] (24 hours) was “no effect”.
Take `CC(Sc1nc2ccccc2[nH]1)C(=O)N/N=C/c1cc(Br)ccc1O` (stereo not drawn) [KH7, (E)-2-(1H-benzo[d]imidazol-2-ylthio)-N′-(5-bromo-2-hydroxybenzylidene)propanehydrazide]: in the series on LNCaP cells [1] (18 hours), the “Rap1-GTP (active form of Rap1) expression” value is listed as “significantly depleted” and the “phosphorylation of B-Raf” value is “suppressed”. Also, in the series on LNCaP cells [1] (KH7 treatment, n=6, 0.79+0.01 in control), the “expression of Rap1, optical band density as ratio to actin band density” value is 0.81+0.07. Moreover, in the series on LNCaP cells [1] (KH7 treatment, n=8, 1.13+0.06 in control), the “expression of B-Raf, optical band density as ratio to actin band density” value is recorded as 1.02+0.04. For the same molecule, the “effect on cell cycle phases” value in the series on LNCaP cells [2] (24 hours, or siRNA transfection) is “cell cycle arrest at the G2 phase”. Further, in the series with LNCaP cells [2] (time course over 48 hours), the “time at which percentage of cells in G2-phase reached maximal value” was found to be 24 h and the “time at which percentage of cells in G2-phase started to rise” value came out at 12 h. Moreover, the “apoptosis (subG1 population and cleavage of caspase-3)” value in the series with PC3 and LNCaP cells is “apoptosis”. Moreover, in the series with tmAC, the “effect on tmAC” value is listed as “no effect”. In addition, the “effect on soluble guanylyl cyclase” value in the series with soluble guanylyl cyclase is recorded as “no effect”. Further, in the series on LNCaP cells [5], the “expression of cyclin D1” value is “not altered”, the “expression of cyclin D3” value is on record as “not altered” and the “expression of cyclin E2” value was “not altered”. Further, the “suppression of cell proliferation, concentration of maximal effect” value in the series on PC3 cells [6] was 20 µmol/L. Also, the “suppression of cell proliferation, concentration of maximal effect” value in the series with LNCaP cells [4] (LNCaP, 24 hours, dose-dependent) turned out to be 20 µmol/L. The “reduction of intracellular cAMP content, concentration of maximal effect” value with LNCaP cells [7] was determined as 20 µmol/L. Besides, the “reduction of intracellular cAMP content, concentration of maximal effect” value in the series with PC3 cells [8] stood at 20 µmol/L. In the series on LNCaP cells [9] (time course over 48 hours), the “time at which cleavage of caspase-3 first appeared” value amounted to 24 h.
Consider `O=C(Nc1ncnc2c1ncn2[C@@H]1O[C@@H]2COP(=O)(O)O[C@H]2[C@H]1O)c1ccccc1` [N^6-benzoyl-cAMP], for which the effect on proliferation entry with LNCaP cells [4] (24 hours) is reported as “no effect”. In the series with LNCaP cells [4] (LNCaP), the “effect on proliferation in cells treated with the sAC inhibitor KH7” value is on record as “no effect”.
`Nc1ncnc2c1ncn2[C@@H]1O[C@@H]2CO[P@@](O)(=S)O[C@H]2[C@H]1O` [RpcAMP, (Rp)-cAMP-S]: the “effect on distribution of the cell population within the cell cycle” value in the series with LNCaP cells [2] was “no effect”. Besides, the “effect on cytotoxicity (LDH activity)” value in the series on LNCaP cells [3] is reported as “no effect”. In the series on LNCaP cells [4] (24 hours), the effect on proliferation result was “no effect”.

B1: shRNA: adenovirus-driven anti-sAC-directed shRNA, hairpin construct of SEQ ID NO: 10 targeting rat sAC mRNA (nucleic acid)
chain: GGGGTACCAAAAAAGTGGAAAGTGGAACGAAAGCATCTCTTGAATGCTTTCGTTCCACTTTCCACAAACAAGGCTTTTCTCCAAG
B1: in the series with LNCaP cells [3] (72 hours), the “LDH release after sAC knockdown” value was “induced LDH release”. Further, the “cell numbers after sAC knockdown” value with LNCaP cells [4] (LNCaP, 72 hours, reduction from 6.37×10^5) was 3.56×10^5. The “caspase-3 cleavage after sAC knockdown” value in the series with LNCaP cells [9] (72 hours) was “led to caspase-3 cleavage”.
